Test results published in paper PMC7955127, “Preclinical small molecule WEHI-7326 overcomes drug resistance and elicits response in patient-derived xenograft models of human treatment-refractory tumors” (Cell Death & Disease, 2021).

Key:
[1] = tested on: H1437 (non-small cell lung carcinoma) xenograft; assay: H1437 tumor xenograft in nude mice; assay type: in vivo, BALB/c nude mice; conditions: i.p. three times weekly
Protocol: (§1) Tumor cell lines LIM2537, U87MGΔ2–7EGFR or H1437 were collected by trypsinization, counted and injected at 5 × 10^6 cells/ site subcutaneously on both flanks of BALB/c nude mice. Treatment with vehicle control or WEHI-7326 at given dose was initiated after 5 days. Drug or vehicle (100 μl) was injected intraperitoneally three times weekly. Control group and treatment group consisted of 8 mice each. Tumors were measured twice weekly with calipers. Tumor volumes were estimated using the modified ellipsoid formula V = 1/2 (length × width^2). The experiments were terminated when tumors in the control group started ulcerating or exceeded 17 mm in length, in line with the LICR/DoS Animal Ethics Committee guidelines (11/05 A).

[2] = tested on: 134111 HGSOC PDX; assay: HGSOC post-chemo PDX model 134111; assay type: in vivo, NSG mice; conditions: 134111 post-taxane, cisplatin-refractory PDX; 20 mg/kg i.v. twice a week, 6 weeks
Protocol: Two to three mm ovarian tumor fragments were subcutaneously engrafted in the left flank of NSG mice and monitored by physical palpation for tumor growth and engraftment. Engrafted tumors were measured twice a week using digital Vernier calipers and maximum tumor diameter + perpendicular tumor length were digitally recorded into the Study Director software (v 3.0/4.0 StudyLog). Tumor volume was calculated automatically (tumor volume (mm^3) = 0.5236 x [larger diameter (mm) x smaller diameter (mm)^2]). Mice were randomized to treatment once their tumor volume reach 180–300 mm^3 and tumor measurements were performed twice a week up to 120 days or when the tumor volume reaches 700 mm^3.
Time to progressive disease (PD): Defined as the time (in days) from beginning of treatment to an increase in average tumor volume of >20% from the nadir (taken as the smallest average tumor volume recorded since treatment started or 200 mm^3 if nadir was <200 mm^3 as lesions smaller than this are difficult to measure with accuracy). Median time to harvest (TTH): Defined as the time (in days) from the beginning of treatment to day of harvest at 700 mm^3 and the median TTH was calculated and plotted using Kaplan-Meier curves. Based on ref. [27]. […]

[3] = tested on: LIM2537 (colon carcinoma) xenograft; assay: LIM2537 tumor xenograft in nude mice; assay type: in vivo, BALB/c nude mice; conditions: i.p. three times weekly
Protocol: as §1

[4] = tested on: MH792 LUSC PDX; assay: LUSC PDX model MH792; assay type: in vivo, NOD-SCID-IL2Rγc–/– mice
Protocol: LUSC PDXs were generated as described in[25]. PDXs at passage 4 were defrosted and washed with PBS before counting. 200,000 to 500,000 cells were then injected in a 50:50 PBS:Matrigel mix into the flanks of NOD-SCID-IL2Rγc–/– male mice. Tumors were measured twice weekly with calipers and treatment started when tumors were between 70–120 mm^3. Mice were assigned to treatment groups based on average tumor volume per group. Mice were culled when tumors reached a volume of 600 mm^3.

[5] = tested on: MDA-MB-231, H1437, LoVo and PC3 cells; assay: Anti-proliferative activity in a panel of cancer cell lines (CellTiterGlo, 72 h); assay type: cell-based, human
Protocol: (§2) Cells were plated at a density of between 500 to 5000 cells per well for adherent cell lines depending on doubling time, and 15,000 cells per well for lymphoblastic leukemia cell lines, in a 96-well plate in 200 μl of growth media. Plates were incubated overnight at 37 °C before adding the inhibitors. Inhibitors were serially diluted from the stock solutions in complete medium and added to the cells. Incubation in the presence of inhibitors was continued for 72 days. Cell viability was assessed by the AlamarBlue (Invitrogen) or CellTiterBlue/Glo (Promega) method according to manufacturer’s instructions. The curve fits and IC50 values were generated in PRISM (GraphPad, San Diego, CA).

[6] = tested on: LoVo (colon carcinoma) xenograft; assay: LoVo tumor xenograft in nude mice; assay type: in vivo, Balb/c nude mice
Protocol: LoVo (4 × 10^6), PC3 (3 × 10^6) or MDA-MB-231 LNA DRE (10^6) cells were collected by trypsination and injected with 50 μl 1:1 PBS:Matrigel (v/v) subcutaneously on the right flank of 18 female (LoVo), 40 male (PC3) or into 4th mammary fat pad of 40 female (MDA231) Balb/c nude mice. Tumor growth was monitored and average tumor size at commencement of dosing was 100 mm^3. Mice were randomized into 3 arms of each 5 (LoVo), 10 (PC3) or 12 (MDA23) mice respectively and treatment with vehicle (saline), WEHI-7326 (biweekly) or docetaxel (weekly) was administered via tail vein injection. Tumor volumes were measured at least twice weekly with calipers and the experiments were terminated when tumors in the control group started exceeding 1500 mm^3. For LoVo, both vehicle and 25 mg/kg WEHI-7326 groups were harvested 24 h, but 20 mg/kg WEHI-7326 group harvested 1 h post final dose. For PC3, docetaxel group was not harvested in an attempt to grow out resistant tumors.

[7] = tested on: H1437; assay: Cell growth inhibition assay, H1437; assay type: cell-based; conditions: Homo sapiens, NCI-H1437; H1437, non-small cell lung carcinoma; 72 h viability assay, CellTiterGlo; mean of 3 ± SEM; read-out: IC50 (inhibition of cellular proliferation)
Protocol: as §2, with “Incubation in the presence of inhibitors was continued for 72 days.” left out

COc1ccc(CNc2nc(NCc3ccc(CN)cc3)nc(NN3CC(=O)NC3=O)n2)cc1 [WEHI-7326]
Tumor growth [1]: effective in reducing tumor growth
Tumor response [2]: ineffective
Tumor growth [3]: effective in reducing tumor growth
Adverse effects in treatment arm ([4]; MH792 PDX mice, 20 mg/kg i.v. twice a week, n = 8–10): 1 with hind limb paralysis after 4 weeks of treatment
Median survival ([4]; MH792 PDX, WEHI-7326 20 mg/kg i.v. biweekly, docetaxel 10 mg/kg i.p. once): 34 days
Anti-proliferative activity relative to myoseverin B [5]: over 10 fold
Body weight loss ([6]; LoVo xenograft mice, 25 mg/kg, 9 doses in total): ~ 6%
Tumor growth inhibition ([6]; LoVo xenograft, 25 mg/kg biweekly i.v.): 60%
IC50 [7]: 29.7 ± 10.8 nM
